The text below walks through data of PubChem BioAssay AID328 (DTP/NCI, 2004).

This experiment relates to BDF1 mice, P388 leukemia ip, median survival T/C. The experiment in a line: NCI In Vivo Anticancer Drug Screen. Data for tumor model P388 Leukemia (intraperitoneal) in B6D2F1 (BDF1) mice. The following applies: endpoint: median survival time, higher = longer survival. The gist of the method:
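T/C = treated-group survival ÷ vehicle-control survival; tumour transplanted into mice before dosing.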

Where [1] appears, read: dose: 12.5 mg/kg/injection, schedule: Q01DX009 (ip), vehicle: saline.
Where [2] appears, read: dose: 25.0 mg/kg/injection, schedule: Q01DX009 (ip), vehicle: saline.
Setting [3] is: dose: 50.0 mg/kg/injection, schedule: Q01DX009 (ip), vehicle: saline.
The mark [4] stands for this setting: dose: 100.0 mg/kg/injection, schedule: Q04DX003 (ip), vehicle: saline.
The mark [5] stands for this setting: dose: 200.0 mg/kg/injection, schedule: Q04DX003 (ip), vehicle: saline.
Where [6] appears, read: dose: 25.0 mg/kg/injection, schedule: Q04DX003 (ip), vehicle: saline.
Where [7] appears, read: dose: 50.0 mg/kg/injection, schedule: Q04DX003 (ip), vehicle: saline.
The mark [8] stands for this setting: dose: 100.0 mg/kg/injection, schedule: Q04DX003 (ip), vehicle: Klucel (hydroxypropylcellulose) (HPC).
The mark [9] stands for this setting: dose: 200.0 mg/kg/injection, schedule: Q04DX003 (ip), vehicle: Klucel (hydroxypropylcellulose) (HPC).
[10] abbreviates: dose: 400.0 mg/kg/injection, schedule: Q04DX003 (ip), vehicle: Klucel (hydroxypropylcellulose) (HPC).
Where [11] appears, read: dose: 100.0 mg/kg/injection, schedule: Q01DX009 (ip), vehicle: saline with Tween-80.
The mark [12] stands for this setting: dose: 200.0 mg/kg/injection, schedule: Q01DX009 (ip), vehicle: saline with Tween-80.
The mark [13] stands for this setting: dose: 100.0 mg/kg/injection, schedule: Q04DX003 (ip), vehicle: saline with Tween-80.
Setting [14] is: dose: 200.0 mg/kg/injection, schedule: Q04DX003 (ip), vehicle: saline with Tween-80.
The mark [15] stands for this setting: dose: 400.0 mg/kg/injection, schedule: Q04DX003 (ip), vehicle: saline with Tween-80.

“And” between values parts separate entries of the source, which are not always exact repeats. Equal entries are not always repeated. Toxic doses and inconclusive results are not listed.

Consider `OCC1C2CCC(C2)C1CO` (stereo not given), for which the T/C was 105 % of control under setting [1]; 110 % of control under setting [2]; 115 % of control under setting [3]; 115 % of control (dose: 75.0 mg/kg/injection, schedule: Q01DX009 (ip), vehicle: saline); 95 % of control (dose: 115.0 mg/kg/injection, schedule: Q01DX009 (ip), vehicle: saline).

On to `CC([OH2+])CNCCN.CC([OH2+])CNCCN.O=[N+]([O-])[O-].[Cu+2]` (stereo not given), for which the T/C is 110 % of control under setting [1] and 113 % of control under setting [2].

In the case of `C=CC(C)(C)c1cc2cc3c(cc2oc1=O)OC(C(C)(C)OC(C)=O)C3` (stereo not given), the T/C under setting [4] is 107 % of control and the T/C under setting [5] is 104 % of control.

`C1CCC2C(C1)NC1CCCCC12` (stereo not given): the T/C reads like this: (dose: 12.0 mg/kg/injection, schedule: Q04DX003 (ip), vehicle: saline) 109 % of control; (dose: 12.5 mg/kg/injection, schedule: Q01DX001 (ip), vehicle: saline sonified) 100 % of control; (dose: 25.0 mg/kg/injection, schedule: Q01DX001 (ip), vehicle: saline sonified) 90 % of control; under setting [2], 112 % of control; under setting [6], 95 % of control; (dose: 50.0 mg/kg/injection, schedule: Q01DX001 (ip), vehicle: saline sonified) 90 % of control. The T/C is 104 % of control under setting [3] and 109 % of control under setting [7].

With `C=C1CCN2CCCC12` (stereo not given), the T/C reads like this: (dose: 20.0 mg/kg/injection, schedule: Q01DX010 (ip), vehicle: carboxymethylcellulose (CMC)) 110 % of control; (dose: 40.0 mg/kg/injection, schedule: Q01DX010 (ip), vehicle: carboxymethylcellulose (CMC)) 100 % of control; (dose: 80.0 mg/kg/injection, schedule: Q01DX010 (ip), vehicle: carboxymethylcellulose (CMC)) 110 % of control.

With `CCCCCCCCCCCS(=O)(=O)C(CCOS(C)(=O)=O)COS(C)(=O)=O` (stereo not given), the T/C runs as follows: under setting [8], 95 % of control; under setting [9], 100 % of control; under setting [10], 100 % of control.

For `O=c1oc2ccc(O)cc2c2ccccc12`, the T/C reads like this: (dose: 50.0 mg/kg/injection, schedule: Q04DX003 (ip), vehicle: saline sonified) 95 % of control; (dose: 100.0 mg/kg/injection, schedule: Q04DX003 (ip), vehicle: saline sonified) 100 % of control; (dose: 200.0 mg/kg/injection, schedule: Q04DX003 (ip), vehicle: saline sonified) 104 % of control.

In the case of `CCOC(=O)C(Cc1ccc(N(CCCl)CCCl)cc1)NC(=O)C(NC(C)=O)C(C)C` (stereo not given), the T/C was 109 % of control (dose: 5.0 mg/kg/injection, schedule: Q04DX003 (ip), vehicle: water); 157 % of control (dose: 10.0 mg/kg/injection, schedule: Q04DX003 (ip), vehicle: water); 223 % of control (dose: 20.0 mg/kg/injection, schedule: Q04DX003 (ip), vehicle: water); 264 % of control (dose: 40.0 mg/kg/injection, schedule: Q04DX003 (ip), vehicle: water); 150 % of control (dose: 80.0 mg/kg/injection, schedule: Q04DX003 (ip), vehicle: water).

`O=C(C[N+]12CN3CN(CN(C3)C1)C2)c1ccc(Cl)cc1`: the T/C is 100 % of control under setting [6]; 104 % of control (dose: 44.0 mg/kg/injection, schedule: Q04DX003 (ip), vehicle: saline sonified); 107 % of control (dose: 50.0 mg/kg/injection, schedule: Q01DX009 (ip), vehicle: saline with Tween-80); 110 % of control under setting [7]; 118 % of control (dose: 66.0 mg/kg/injection, schedule: Q04DX003 (ip), vehicle: saline sonified); 119 % of control under setting [11]. Also, the T/C under setting [12] was 119 % of control.

In the case of `OCCNCc1ccc2ccccc2n1`, the T/C reads like this: under setting [4], 100 % of control; under setting [5], 100 % of control.

Turning to `Cc1nc2c(=O)[nH]n(C)c2nc1C`, the T/C is, setting by setting: under setting [11], 97 % of control; under setting [13], 95 % of control; under setting [12], 97 % of control; under setting [14], 94 % of control; under setting [15], 99 % of control.

Take `N#Cc1cnn(C(N)=S)c1N`: the T/C is 104 % of control under setting [6], 104 % of control under setting [7] and 100 % of control under setting [4].

Turning to `CC1OC(OC2C(O)C(O)C(O)C(O)C2O)C(N)CC1N=C(N)C(=O)O` (stereo not given), the T/C (dose: 100.0 mg/kg/injection, schedule: Q01DX009 (ip), vehicle: saline) is 91 % of control; the T/C (dose: 200.0 mg/kg/injection, schedule: Q01DX009 (ip), vehicle: saline) was 100 % of control; the T/C (dose: 400.0 mg/kg/injection, schedule: Q01DX009 (ip), vehicle: saline) was 116 % of control.

In the case of `ClC(Cl)(Cl)c1ccc(C(Cl)(Cl)Cl)cc1`, the T/C by setting is: (dose: 6.0 mg/kg/injection, schedule: Q01DX009 (ip), vehicle: Klucel (hydroxypropylcellulose) (HPC)) 100 % of control; (dose: 6.25 mg/kg/injection, schedule: Q01DX009 (ip), vehicle: Klucel (hydroxypropylcellulose) (HPC)) 90 % of control; (dose: 12.0 mg/kg/injection, schedule: Q01DX009 (ip), vehicle: Klucel (hydroxypropylcellulose) (HPC)) 104 % of control; (dose: 12.5 mg/kg/injection, schedule: Q01DX009 (ip), vehicle: Klucel (hydroxypropylcellulose) (HPC)) 90 % of control; (dose: 12.5 mg/kg/injection, schedule: Q04DX003 (ip), vehicle: Klucel (hydroxypropylcellulose) (HPC)) 105 % of control; (dose: 22.0 mg/kg/injection, schedule: Q04DX003 (ip), vehicle: Klucel (hydroxypropylcellulose) (HPC)) 96 % of control and 118 % of control. Moreover, the T/C is 104 % of control (dose: 25.0 mg/kg/injection, schedule: Q01DX009 (ip), vehicle: Klucel (hydroxypropylcellulose) (HPC)); 120 % of control (dose: 25.0 mg/kg/injection, schedule: Q04DX003 (ip), vehicle: Klucel (hydroxypropylcellulose) (HPC)); 119 % of control and 122 % of control (dose: 33.0 mg/kg/injection, schedule: Q04DX003 (ip), vehicle: Klucel (hydroxypropylcellulose) (HPC)); 90 % of control and 100 % of control (dose: 50.0 mg/kg/injection, schedule: Q01DX009 (ip), vehicle: Klucel (hydroxypropylcellulose) (HPC)); 100 % of control (dose: 75.0 mg/kg/injection, schedule: Q04DX003 (ip), vehicle: Klucel (hydroxypropylcellulose) (HPC)); 100 % of control (dose: 100.0 mg/kg/injection, schedule: Q01DX009 (ip), vehicle: Klucel (hydroxypropylcellulose) (HPC)). The T/C was 109 % of control (dose: 150.0 mg/kg/injection, schedule: Q04DX003 (ip), vehicle: Klucel (hydroxypropylcellulose) (HPC)); 100 % of control (dose: 250.0 mg/kg/injection, schedule: Q04DX003 (ip), vehicle: Klucel (hydroxypropylcellulose) (HPC)); 104 % of control under setting [10].

In the case of `O=C1c2ccccc2C(=O)N1CC#CCN1C(=O)c2ccccc2C1=O`, the T/C is 115 % of control (dose: 75.0 mg/kg/injection, schedule: Q01DX009 (ip), vehicle: saline with Tween-80); 90 % of control (dose: 150.0 mg/kg/injection, schedule: Q01DX009 (ip), vehicle: saline with Tween-80); 97 % of control (dose: 300.0 mg/kg/injection, schedule: Q01DX009 (ip), vehicle: saline with Tween-80).

As to `CCC(=O)OC1CC2C3CCC4=CC(=O)CCC4(C)C3CCC2(C)C1OC(=O)CC` (stereo not given), the T/C under setting [8] was 100 % of control; the T/C (dose: 200.0 mg/kg/injection, schedule: Q01DX009 (ip), vehicle: Klucel (hydroxypropylcellulose) (HPC)) is 109 % of control; the T/C under setting [9] was 104 % of control; the T/C (dose: 400.0 mg/kg/injection, schedule: Q01DX009 (ip), vehicle: Klucel (hydroxypropylcellulose) (HPC)) is 91 % of control and 122 % of control; the T/C under setting [10] is 104 % of control.

Turning to `CC(=O)OC1CCC2(C)C(CCC3(C)C2CCC2C4C5OC(=O)C4(CCC5(C)C)CCC23C)C1(C)C` (stereo not given), the T/C (dose: 10.0 mg/kg/injection, schedule: Q01DX009 (ip), vehicle: Klucel (hydroxypropylcellulose) (HPC)) was 105 % of control; the T/C (dose: 20.0 mg/kg/injection, schedule: Q01DX009 (ip), vehicle: Klucel (hydroxypropylcellulose) (HPC)) was 114 % of control; the T/C (dose: 40.0 mg/kg/injection, schedule: Q01DX009 (ip), vehicle: Klucel (hydroxypropylcellulose) (HPC)) was 110 % of control.

Regarding `OC(CBr)c1ccc(Cl)cc1` (stereo not given), the T/C is, setting by setting: under setting [13], 100 % of control; under setting [14], 95 % of control; under setting [15], 95 % of control.
